According to PMC7686273 (Bioorganic & medicinal chemistry letters, 2020):

How the values were obtained:
rat mGlu7 = rat mGlu7 (Rattus norvegicus, UniProt P35400); test: calcium mobilization assay with rat mGlu7/Gα15/HEK cells; format: cell-based
clearance in vivo = details: plasma
[1] = stability under cell-based assay conditions; format: physicochemical; details: cell buffer

Chain of rat mGlu7 (P35400 35-915): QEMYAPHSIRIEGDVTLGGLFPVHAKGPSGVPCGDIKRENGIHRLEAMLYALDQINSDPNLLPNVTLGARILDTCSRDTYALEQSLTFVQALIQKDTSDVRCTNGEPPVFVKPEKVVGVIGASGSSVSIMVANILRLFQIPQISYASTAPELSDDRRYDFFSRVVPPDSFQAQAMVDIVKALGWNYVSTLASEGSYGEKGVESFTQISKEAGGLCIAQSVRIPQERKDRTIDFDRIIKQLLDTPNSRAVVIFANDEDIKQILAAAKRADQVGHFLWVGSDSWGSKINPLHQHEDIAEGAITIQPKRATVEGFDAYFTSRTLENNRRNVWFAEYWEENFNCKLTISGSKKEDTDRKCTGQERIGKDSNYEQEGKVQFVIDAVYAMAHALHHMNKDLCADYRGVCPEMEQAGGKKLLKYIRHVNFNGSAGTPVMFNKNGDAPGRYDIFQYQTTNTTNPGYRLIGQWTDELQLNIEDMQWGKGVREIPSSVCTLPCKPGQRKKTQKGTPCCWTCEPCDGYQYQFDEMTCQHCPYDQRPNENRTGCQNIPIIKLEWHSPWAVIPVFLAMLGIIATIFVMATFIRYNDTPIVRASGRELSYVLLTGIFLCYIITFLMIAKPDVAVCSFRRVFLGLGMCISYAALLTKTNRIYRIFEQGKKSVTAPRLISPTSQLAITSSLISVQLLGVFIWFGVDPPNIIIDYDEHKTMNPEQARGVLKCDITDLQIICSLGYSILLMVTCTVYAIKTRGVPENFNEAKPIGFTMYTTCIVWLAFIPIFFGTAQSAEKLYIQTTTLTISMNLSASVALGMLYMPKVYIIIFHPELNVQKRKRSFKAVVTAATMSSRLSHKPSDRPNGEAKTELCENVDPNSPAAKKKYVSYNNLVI

Row | SMILES | mGlu7 NAM activity in words (rat mGlu7) | also measured
1 | CCOC(=O)c1cnc2c(OC)cc(OC)cc2c1-c1ccc(-c2ccccc2OCC)nc1 [compound 19] | sub-micromolar | –
2 | CCOC(=O)c1cnc2c(OC)cccc2c1N1CCN(c2cccnc2OC)CC1 [11l] | modest potency | –
3 | CCOC(=O)c1cnc2c(OC)cccc2c1-c1cnc(-c2ccccc2OC)c(OC)c1 [15h] | – | clearance (clearance in vivo): 70 mL/min/kg
4 | CCOC(=O)c1cnccc1N1CCN(c2ccccc2OC)CC1 [13a] | – | fold loss of mGlu7 NAM potency relative to 8 (rat mGlu7): ~ 6.5 fold
5 | CCOC(=O)c1cnc2c(OC)cccc2c1N1CCN(c2ccccc2OC)CC1C (stereo not drawn) [14b] | – | fold loss of mGlu7 NAM potency relative to 8 (rat mGlu7): ~ 2 fold
6 | CCOC(=O)c1cnc2c(OC)cccc2c1N1CC2(CN(c3ccccc3OC)C2)C1 [14i] | not productive | –
7 | CCOC(=O)c1cnc2c(OC)cccc2c1N1CCN(c2ccccc2OC)CC1 [compound 8] | – | stability of the ester under cell-based assay conditions [1]: stable
8 | CCOC(=O)c1cnc2ccsc2c1N1CCN(c2ccccc2OC)CC1 [13b] | – | fold loss of mGlu7 NAM potency relative to 8 (rat mGlu7): ~ 6.5 fold
9 | CCOC(=O)c1cnc2c(OC)cccc2c1N1CCN(c2ccc(OC)cc2OC)CC1 [11i] | retained mGlu7 NAM potency | –
10 | CCOC(=O)c1cnc2c(OC)cccc2c1C1CC2CC(C1)N2c1ccccc1OC (stereo not drawn) [14g] | inactive | –
11 | CCOC(=O)c1cnc2c(OC)cccc2c1-c1ccn(Cc2ccccc2OC)c1 [15j] | competent surrogate | –
12 | CCOC(=O)c1cnc2c(OC)cccc2c1N(C)CCN(C)c1ccccc1OC [14c] | – | fold loss of mGlu7 NAM potency relative to 8 (rat mGlu7): ~ 6 fold
13 | CCOC(=O)c1cnc2c(OC)cccc2c1N1CCN(c2ccccc2C)CC1 [11e] | lost activity | –
14 | CCOC(=O)c1cnc2c(OC)cccc2c1N1CCN(c2c(OC)cccc2OC)CC1 [11j] | retained mGlu7 NAM potency | –
15 | CCOC(=O)c1cnc2sccc2c1N1CCN(c2ccccc2OC)CC1 [13c] | – | fold loss of mGlu7 NAM potency relative to 8 (rat mGlu7): ~ 6.5 fold
16 | CCOC(=O)c1cnc2c(OC)cc(OC)cc2c1N1CCN(c2ccccc2OC)CC1 [13f] | equipotent to 8 | –
17 | CCOC(=O)c1cnc2c(OC)cc(OC)cc2c1-c1ccc(-c2ccccc2OC)nc1 [compound 18] | sub-micromolar | –
18 | CCOC(=O)c1cnc2c(OC)cccc2c1C1C2CC1CN(c1ccccc1OC)C2 (stereo not drawn) [14f] | inactive | –
19 | CCOC(=O)c1cnc2c(OC)cccc2c1N1CCN(c2ccccc2C#N)CC1 [11f] | lost activity | –
20 | CCOC(=O)c1cnc2c(OC)cccc2c1N1CCN(c2ccccc2Cl)CC1 [11d] | lost activity | –
21 | CCOC(=O)c1ccc2c(OC)cccc2c1N1CCN(c2ccccc2OC)CC1 [13d] | inactive | –
22 | CCOC(=O)c1cnc2c(OC)cccc2c1N1CCN(c2ccccc2OC)C(C)C1 (stereo not drawn) [14a] | – | fold loss of mGlu7 NAM potency relative to 8 (rat mGlu7): ~ 2 fold
23 | CCOC(=O)c1cnc2c(OC)cccc2c1N1CCN(c2nccnc2OC)CC1 [11m] | modest potency | –
24 | CCOC(=O)c1cnc2c(OC)cccc2c1N1CCN(c2ccccc2F)CC1 [11h] | lost activity | –
